The NIST ThermoML archive (doi:10.1016/j.tca.2011.08.021)
Several values for one entry are separate records, joined by “and”; a condition that tells them apart may be missing. Equal values may be shown once.

Legend:
[1] = 393 K; 101.33 kPa; Crystal; X-ray diffraction
[2] = molar heat capacity at constant pressure; settings: 101.33 kPa, Crystal, Small sample (50 mg) DSC

[Nd+3].[Nd+3].[O-2].[O-2].[O-2].[O-2].[O-2].[O-2].[O-2].[Zr+4].[Zr+4] [dineodymium(III) dizirconium(IV) oxide]
Settings	mass density [kg/m3]
[1]	6411

[2]
Settings	molar heat capacity at constant pressure
293 K	236.67 J/K/mol
303 K	238.41 J/K/mol
313 K	240.75 J/K/mol
573 K	275.35 J/K/mol
623 K	280.65 J/K/mol
673 K	284.79 J/K/mol
723 K	288.11 J/K/mol
773 K	290.8 J/K/mol
823 K	293.01 J/K/mol
873 K	294.85 J/K/mol
923 K	296.39 J/K/mol
973 K	297.7 J/K/mol
1023 K	298.83 J/K/mol
1073 K	299.79 J/K/mol
1123 K	300.63 J/K/mol and 302 J/K/mol
1173 K	301.36 J/K/mol
1273 K	302.57 J/K/mol
1323 K	303.07 J/K/mol
1373 K	303.52 J/K/mol
